Reference: patent publication US11603368B2, “Fused thiophene derivatives and their uses” (ENYO PHARMA, priority 2018, dated 2023)

What was measured:
[1] = tested on: H1N1 (influenza A/New Caledonia/20/99); assay: Antiviral effect on A549 cells infected with H1N1; type: cell-based, H1N1 A/New Caledonia/20/99 virus; conditions: Human A549 cells, MOI of 0.1, 48 h post-infection, MUNANA hydrolysis readout
Method: The antiviral effect of the compounds of the invention has been tested on A549 cell lines infected with H1N1 (influenza A/New Caledonia/20/99).
Human A549 cells (80,000 cells/well in a 96 well plate) were treated with a range of concentration of test molecules and immediately infected by H1N1 A/New Caledonia/20/99 virus (clinical isolate) at MOI of 0.1 in DMEM/1% Penicillin/streptomycin supplemented with 0.25 μg/ml TPCK trypsin (Sigma) and incubated at 37° C. in 5% CO2. 48 h post-infection, supernatants (25 μl) were collected and transferred into a 96-well black flat-bottom plate, mixed with 25 μl PBS with Ca++/Mg++(Thermo Fisher) and 50 μl of 2′-(4-Methylumbelliferyl)-α-D-N-acetylneuraminic acid sodium salt hydrate stock-solution (20 μM, MUNANA, Sigma). Plates were incubated 1 h at 37° C. and reaction is stopped by adding 100 μl of Stop Solution (glycine 0.1 M pH10.7/25% ethanol). The amount of fluorescent product released by MUNANA hydrolysis (4-MU) was measured in a Tecan spectrophotometer with excitation and emission wavelengths of 365 and 450 nm respectively.

[2] = target: T1, CISD1 Gene Product (mitoNEET) (Homo sapiens, UniProt Q9NZ45); assay: Stability of Fe—S cluster binding of purified NEET protein mitoNEET; type: biochemical; conditions: for Time (in minutes) to achieve 50% loss of bound cluster (Absorbance 458 nm), CISD1 Gene Product (mitoNEET) / Residual cluster bound at end of experiment (Percentage Absorbance 458 nm at time zero), CISD1 Gene Product (mitoNEET): pH 6, 37° C., 1:3 protein:compound molar ratio; for Time (in minutes) to achieve 50% loss of bound cluster (Absorbance 458 nm), CISD1 Gene Product (mitoNEET): 6 μM compound, run time 180 minutes, Vehicle Control 80; for Residual cluster bound at end of experiment (Percentage Absorbance 458 nm at time zero), CISD1 Gene Product (mitoNEET): end of 180 minutes, Vehicle Control 16%; for stabiliser or destabiliser of Fe—S cluster binding, CISD1 Gene Product (mitoNEET): time to 50% Fe—S cluster bound loss changed by more than 25% vs Control sample, at the concentrations tested
T1 sequence (Q9NZ45 33-108 limits assumed): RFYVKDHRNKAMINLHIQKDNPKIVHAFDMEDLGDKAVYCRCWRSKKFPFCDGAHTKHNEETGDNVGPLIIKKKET
Method: (§1) The modulator effect on the NEET proteins encoded by human CISD1, CISD2, and CISD3 genes by the compounds of the invention has been tested and is reported below. Particularly, the biochemical function of the NEET proteins is measured by the stability of Fe—S cluster binding of the purified NEET proteins.
(§2) The Fe—S cluster binding capacity of NEET proteins is known to be coordinated by four amino-acids in a stretch of 16 (three Cysteine and one Histidine). As the lability of the Fe—S cluster of NEET proteins is sensitive to the environment, cluster stability measurements are one of the measures of interactions of NEET proteins with small molecules and compounds. NEET protein/2Fe-2S cluster stability can be assessed by monitoring the decay in absorbance of its characteristic 458-nm peak (characteristic of the oxidized 2Fe-2S cluster) over time. Each NEET protein (mitoNEET, NAF-1 and Miner 2) was tested for its Fe—S binding in the absence or presence of a compound according to the invention (see table 2 below). The rate of cluster release (time in minutes to achieve 50% loss of bound Fe—S cluster) was compared for each NEET protein in the presence of one of the compounds of the invention (in a 1:3 protein:compound molar ratio) relative to each protein alone.
(§3) At pH 6, all the three NEET proteins (mitoNEET, NAF-1 and Miner 2) have a characteristic rate of loss of the bound Fe—S cluster that can be measured by the decrease of absorbance at wavelength 458 nm over time, using a spectrophotometer. Thus, Bis-Tris buffer (100 mM Bis-Tris pH6, 100 mM Nacl) was used at pH 6 to dilute either DMSO (Blank sample: Bis-Tris Buffer pH 6, 6 μM DMSO), DMSO and one of the three NEET proteins (Control sample: Bis-Tris Buffer pH 6, 6 μM DMSO, 2 μM purified NEET protein) or DMSO, one of the three NEET proteins and a compound of the invention (Test sample: Bis-Tris Buffer pH 6, 6 μM DMSO, […], 6 μM compound of the invention).
(§4) A reaction mix containing DMSO diluted in the Bis-Tris Buffer with or without a compound of the invention was prepared. The purified NEET protein was the last component added to the reaction mix which was then aliquoted into 4 replicates in 96 wells plates. The absorbance at wavelength 458 nm was taken at 5 minutes intervals at 37° C. with a spectrofluorimeter. The assay run time for CISD2 gene product (NAF-1) was 500 minutes and 180 minutes for both the CISD 1 gene product (mitoNEET) and the CISD3 gene product (Miner 2).
(§5) In addition to time monitoring, residual bound Fe—S cluster to NEET protein was measured at the final point of the spectrometry assay for each Test sample and compared to the Control sample data (in parenthesis table 2). This residual binding is measured by the differential percentage between the absorbance 458 nm at time zero and the absorbance 458 nm at the end of the experiment (i.e. respectively 500 or 180 minutes as described hereabove), showing the percentage of NEET protein still able to bind a Fe—S cluster.
(§6) Analysis of the absorbance enables the time for which 50% loss of bound Fe—S cluster is reached (i.e. a 50% absorbance decrease at 458 nm) for each Test sample and each Control sample (in parenthesis table 2) to be determined. The data are then compared to determine whether the compound of the invention stabilizes or destabilizes the NEET protein/Fe—S cluster binding.

[3] = target: T2, CISD2 Gene Product (NAF-1) (Homo sapiens, UniProt Q8N5K1); assay: Stability of Fe—S cluster binding of purified NEET protein NAF-1; type: biochemical; conditions: for Time (in minutes) to achieve 50% loss of bound cluster (Absorbance 458 nm), CISD2 Gene Product (NAF-1) / Residual cluster bound at end of experiment (Percentage Absorbance 458 nm at time zero), CISD2 Gene Product (NAF-1): pH 6, 37° C., 1:3 protein:compound molar ratio; for Time (in minutes) to achieve 50% loss of bound cluster (Absorbance 458 nm), CISD2 Gene Product (NAF-1): 6 μM compound, run time 500 minutes, Vehicle Control 310; for Residual cluster bound at end of experiment (Percentage Absorbance 458 nm at time zero), CISD2 Gene Product (NAF-1): end of 500 minutes, Vehicle Control 3%; for stabiliser or destabiliser of Fe—S cluster binding, CISD2 Gene Product (NAF-1): time to 50% Fe—S cluster bound loss changed by more than 25% vs Control sample, at the concentrations tested
T2 sequence (Q8N5K1 57-135 limits assumed): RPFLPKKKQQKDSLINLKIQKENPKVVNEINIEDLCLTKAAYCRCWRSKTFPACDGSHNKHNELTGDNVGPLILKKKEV
Method: as §1, §2, §3, §4, §5, §6

[4] = target: T3, CISD3 Gene Product (Miner2) (Homo sapiens, UniProt P0C7P0); assay: Stability of Fe—S cluster binding of purified NEET protein Miner2; type: biochemical; conditions: for Time (in minutes) to achieve 50% loss of bound cluster (Absorbance 458 nm), CISD3 Gene Product (Miner2) / Residual cluster bound at end of experiment (Percentage Absorbance 458 nm at time zero), CISD3 Gene Product (DMSO 11%): pH 6, 37° C., 1:3 protein:compound molar ratio; for Time (in minutes) to achieve 50% loss of bound cluster (Absorbance 458 nm), CISD3 Gene Product (Miner2): 6 μM compound, run time 180 minutes, Vehicle Control 60; for Residual cluster bound at end of experiment (Percentage Absorbance 458 nm at time zero), CISD3 Gene Product (DMSO 11%): end of 180 minutes, Vehicle Control 11%; for stabiliser or destabiliser of Fe—S cluster binding, CISD3 Gene Product (Miner2): time to 50% Fe—S cluster bound loss changed by more than 25% vs Control sample, at the concentrations tested
T3 sequence (P0C7P0 15-127): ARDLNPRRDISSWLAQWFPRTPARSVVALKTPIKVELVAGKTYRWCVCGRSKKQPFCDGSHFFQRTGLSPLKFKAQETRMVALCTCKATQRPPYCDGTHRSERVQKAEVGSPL
Method: as §1, §2, §3, §4, §5, §6

[5] = Influenza A virus, H1N1, A549, 48 h

| Structure (SMILES) | IC50 [1] [nM] | Time (in minutes) to achieve 50% loss of bound cluster (Absorbance 458 nm), CISD1 Gene Product (mitoNEET) [2] | Residual cluster bound at end of experiment (Percentage Absorbance 458 nm at time zero), CISD1 Gene Product (mitoNEET) [2] [%] | Time (in minutes) to achieve 50% loss of bound cluster (Absorbance 458 nm), CISD2 Gene Product (NAF-1) [3] | Residual cluster bound at end of experiment (Percentage Absorbance 458 nm at time zero), CISD2 Gene Product (NAF-1) [3] [%] | stabiliser or destabiliser of Fe—S cluster binding, CISD2 Gene Product (NAF-1) [3] | Time (in minutes) to achieve 50% loss of bound cluster (Absorbance 458 nm), CISD3 Gene Product (Miner2) [4] | Residual cluster bound at end of experiment (Percentage Absorbance 458 nm at time zero), CISD3 Gene Product (DMSO 11%) [4] [%] | IC50 [1, 5] [nM] | stabiliser or destabiliser of Fe—S cluster binding, CISD1 Gene Product (mitoNEET) [2] | stabiliser or destabiliser of Fe—S cluster binding, CISD3 Gene Product (Miner2) [4] |
| --- | --- | --- | --- | --- | --- | --- | --- | --- | --- | --- | --- |
| O=C(Nc1sc2c(c1C(=O)O)CCC(c1ccccc1)C2)c1ccccc1 (stereo not shown) [#46] | 150 | 80 min | 18 | 90 min | 14 | destabilisers | 60 min | 13 |  |  |  |
| O=C(Nc1sc2c(c1C(=O)O)CCN(c1ccccc1)C2)c1ccccc1 [#52] |  | 100 min | 47 | during 500 minutes | 50 | Stabilisers | during 180 minutes | 54 | 90 | stabilisers | Stabilisers |
| COc1ccc(C(=O)Nc2sc3c(c2C(=O)O)CCN(c2ccc(F)cc2C)C3)cc1OC [#54] |  | 105 min | 35 | 305 min | 31 |  | 85 min | 41 | 60 | stabilisers | Stabilisers |
| CC(C)(C)C1CCc2c(sc(NC(=O)c3ccccc3)c2C(=O)O)C1 (stereo not shown) [#71] | 160 | 100 min | 34 | 125 min | 15 | destabilisers | 70 min | 42 |  | stabilisers |  |
| CC1CCCc2sc(NC(=O)c3ccccc3)c(C(=O)O)c21 (stereo not shown) [#74] | 182 | 90 min | 0 | 390 min | 0 | Stabilisers | 65 min | 5 |  |  |  |
| Cc1ccccc1C(=O)Nc1sc2c(c1C(=O)O)CCC(C(C)(C)C)C2 (stereo not shown) [#82] |  | during 180 minutes | 60 | 265 min | 27 |  | during 180 minutes | 64 | 349 | stabilisers | Stabilisers |
| CC(C)OC1CCc2c(sc(NC(=O)c3ccccc3)c2C(=O)O)C1 (stereo not shown) [#103] |  | 95 min | 4 | 415 min | 4 | Stabilisers | 65 min | 20 | 970 |  |  |
| CC(C)(C)C1CCc2c(sc(NC(=O)c3ccccc3Cl)c2C(=O)O)C1 (stereo not shown) [#107] |  | 105 min | 35 | 255 min | 21 |  | 75 min | 41 | 1150 | stabilisers | Stabilisers |
